Experiments:
[1] = target: GSK-3; assay: Protein kinase assay ([γ-33P]-ATP, GS-1 substrate), GSK-3
[2] = target: CLK1 (Mus musculus, UniProt P22518); assay: Protein kinase assay ([γ-33P]-ATP, RS peptide substrate), CLK1; type: biochemical; details: for IC50: 15 µM ATP
Experimental: (§1) DYRK1A, 1B, 2, 3 (human, recombinant, expressed in E. coli as GST fusion proteins) and CLK1, 2, 3, and 4 (mouse, recombinant, expressed in E. coli as GST fusion proteins) were assayed as described for GSK-3 in Buffer A (supplemented extemporaneously with 0.15 mg BSA/mL + 1 mM DTT) with 1 µg of RS peptide ([…]) as a substrate.

[3] = target: T1, DYRK1A (Homo sapiens, UniProt Q13627); assay: Protein kinase assay ([γ-33P]-ATP, RS peptide substrate), DYRK1A; type: biochemical; details: for IC50: 15 µM ATP, read-out: IC50 DYRK 1A
[4] = Cytotoxicity, cell viability by tetrazolium dye assay (XTT assay); type: cell-based; details: human, HeLa cells, read-out: Viability of treated HeLa cells relative to control cells
Experimental: To evaluate the applicability of the 2-substituted indole-3-carbonitrile compounds in cell culture experiments, we assessed toxicity of 6f, 6h, 6s and 13b on HeLa cells by viability assays (Table 4).
The inhibitors were added to the cultured cells from stock solutions in DMSO to the desired final concentration. For cytotoxicity assays, HeLa cells were grown in 96-well plates (20,000–30,000 cells per well) and incubated with the test compounds for 3 days before cell viability was evaluated with the help of a tetrazolium dye assay (XTT assay, AppliChem GmbH, Darmstadt, Germany).

[5] = target: T1, DYRK1A; assay: Ligand-lipophilicity efficiency (pIC50 minus calculated logP)
Experimental: All new compounds were evaluated based on their physicochemical properties regarding Lipinski’s rule of five and the ligand-lipophilicity efficiency (LLE). Both concepts are used to assess the druglikeness of drug development candidates. […] LLE is calculated from pIC50 minus calculated logP [46].

[6] = target: T2, DYRK2 (Homo sapiens, UniProt Q92630); assay: Protein kinase assay ([γ-33P]-ATP, RS peptide substrate), DYRK2; type: biochemical
T2 sequence (Q92630 1-601): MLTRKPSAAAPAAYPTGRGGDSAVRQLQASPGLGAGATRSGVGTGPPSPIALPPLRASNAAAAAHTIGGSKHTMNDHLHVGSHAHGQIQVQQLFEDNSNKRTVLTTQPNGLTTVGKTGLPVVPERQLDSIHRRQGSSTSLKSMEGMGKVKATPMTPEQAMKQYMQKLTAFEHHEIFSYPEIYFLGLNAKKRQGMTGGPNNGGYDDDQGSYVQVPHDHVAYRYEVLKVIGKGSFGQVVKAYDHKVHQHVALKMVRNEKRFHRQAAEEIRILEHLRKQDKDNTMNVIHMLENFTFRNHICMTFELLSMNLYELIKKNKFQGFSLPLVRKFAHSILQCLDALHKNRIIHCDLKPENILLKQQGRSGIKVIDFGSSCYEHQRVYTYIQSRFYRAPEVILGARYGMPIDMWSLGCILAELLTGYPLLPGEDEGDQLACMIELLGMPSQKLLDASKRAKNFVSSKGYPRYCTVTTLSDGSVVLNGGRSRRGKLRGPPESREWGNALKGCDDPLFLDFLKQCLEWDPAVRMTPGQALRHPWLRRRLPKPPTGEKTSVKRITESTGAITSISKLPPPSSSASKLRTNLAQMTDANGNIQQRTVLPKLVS
Experimental: as §1

[7] = target: CLK3 (Mus musculus, UniProt O35492); assay: Protein kinase assay ([γ-33P]-ATP, RS peptide substrate), CLK3; type: biochemical; details: 10 µM compound; read-out: Inhibition at 10 µM CLK3 (class symbol)
Experimental: as §1

[8] = tested on: DYRK1A (phosphorylation of T434 in SF3B1) in HeLa cells; assay: Inhibition of endogenous DYRK1A activity in HeLa cells (phosphorylation of T434 in GFP-SF3B1-NT, Western blot); type: cell-based
[9] = target: T3, DYRK3 (Homo sapiens, UniProt O43781); assay: Protein kinase assay ([γ-33P]-ATP, RS peptide substrate), DYRK3; type: biochemical
T3 sequence (O43781 1-588): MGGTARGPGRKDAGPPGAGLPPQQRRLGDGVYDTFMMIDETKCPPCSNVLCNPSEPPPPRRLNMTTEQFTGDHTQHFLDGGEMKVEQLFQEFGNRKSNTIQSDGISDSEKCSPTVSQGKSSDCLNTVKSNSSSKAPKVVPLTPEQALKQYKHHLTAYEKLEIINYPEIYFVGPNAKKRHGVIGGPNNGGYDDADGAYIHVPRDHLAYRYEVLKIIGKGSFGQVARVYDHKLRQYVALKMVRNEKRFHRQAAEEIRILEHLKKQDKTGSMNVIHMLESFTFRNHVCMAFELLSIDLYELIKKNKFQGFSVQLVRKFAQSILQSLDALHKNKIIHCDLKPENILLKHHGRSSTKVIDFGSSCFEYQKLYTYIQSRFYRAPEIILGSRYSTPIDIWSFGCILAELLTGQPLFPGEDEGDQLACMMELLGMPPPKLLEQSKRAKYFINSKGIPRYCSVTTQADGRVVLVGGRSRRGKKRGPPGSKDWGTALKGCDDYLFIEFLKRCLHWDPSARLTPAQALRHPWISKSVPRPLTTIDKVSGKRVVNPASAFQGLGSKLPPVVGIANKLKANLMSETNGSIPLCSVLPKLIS
Experimental: as §1

[10] = Kinetic solubility, laser nephelometry; type: physicochemical; details: phosphate buffer pH 7.4, nephelometry
Experimental: The kinetic solubility was determined using laser nephelometry. A stock solution of the test compounds in DMSO was prepared and further diluted with DMSO to achieve a dilution series of 8–12 solutions with different concentrations. The DMSO solutions (2 µL) were placed in a row on a 96-well plate and diluted with aqueous phosphate buffer pH 7.4 (198 µL). The well plate was scanned by a nephelometer (Nephelostar Plus, BMG Labtech, Ortenberg, Germany). Unsolved particles scatter the laser light which is detected by the nephelometer. The intensity of the scattered light is proportional to the particle concentration in the suspension. The intensity of the scattered light was plotted versus the concentration to obtain a kick off curve. The concentration at which the compounds began to precipitate was directly read out from the kick off curve.

[11] = target: CLK4 (Mus musculus, UniProt O35493); assay: Protein kinase assay ([γ-33P]-ATP, RS peptide substrate), CLK4; type: biochemical; details: 15 µM ATP
Experimental: as §1

[12] = target: CLK2 (Mus musculus, UniProt O35491); assay: Protein kinase assay ([γ-33P]-ATP, RS peptide substrate), CLK2; type: biochemical; details: 15 µM ATP
Experimental: as §1

[13] = target: DYRK1B (Homo sapiens, UniProt Q9Y463); assay: Protein kinase assay ([γ-33P]-ATP, RS peptide substrate), DYRK1B; type: biochemical; details: 15 µM ATP; read-out: IC50 DYRK 1B
Experimental: as §1

[14] = Thermodynamic solubility, shake-flask method with HPLC quantification; type: physicochemical; details: phosphate buffer pH 7.4, 25 °C
Experimental: For solubility assays an aqueous phosphate buffer pH 7.4 was used. The buffer was prepared by dissolving Na2HPO4 × 2 H2O (298 mg), KH2PO4 (19 mg) and NaCl (800 mg) in water (100 mL). The pH was adjusted to 7.4 by addition of hydrochloric acid. The thermodynamic solubility was determined using a shake-flask method with quantification by a HPLC method. The test compounds (500 µg) were incubated with aqueous phosphate buffer pH 7.4 (400 µL) in sealed Whatman MiniUniPrep vials (GE Healthcare, Freiburg, Germany). The mixtures were shaken at 25 °C and 400 rpm for 24–96 h (IKA KS 3000 ic control, IKA-Werke, Staufen, Germany). After 24 h, 48 h and 72 h, the mixtures were visually inspected for remaining solids and the solids were filtered off. The concentrations in the resulting saturated solutions were quantified by isocratic HPLC using calibration with external standard. If equilibrium was not reached after 72 h, solubility of a further sample was determined after 96 h. For calibration, a stock solution of 10 mM of the test compounds in DMSO was prepared and the stock solution was diluted with ACN to suitable concentrations. The AUC at the wavelength maxima was used for quantification.

[15] = tested on: DYRK1A; details: read-out: IC50 DYRK1A; cited from earlier work
[16] = tested on: DYRK1B; set-up: method as in PMID 27766861, PMID 25268714, PMID 25264830; details: cited from earlier work
[17] = tested on: DYRK1A-mediated tau phosphorylation and Aβ production; set-up: method as in PMID 25556849; details: cellular; cited from earlier work
[18] = pIC50 (DYRK1A) minus calculated logP

Chain of CLK1 (P22518 whole entry, the tested form may be a part): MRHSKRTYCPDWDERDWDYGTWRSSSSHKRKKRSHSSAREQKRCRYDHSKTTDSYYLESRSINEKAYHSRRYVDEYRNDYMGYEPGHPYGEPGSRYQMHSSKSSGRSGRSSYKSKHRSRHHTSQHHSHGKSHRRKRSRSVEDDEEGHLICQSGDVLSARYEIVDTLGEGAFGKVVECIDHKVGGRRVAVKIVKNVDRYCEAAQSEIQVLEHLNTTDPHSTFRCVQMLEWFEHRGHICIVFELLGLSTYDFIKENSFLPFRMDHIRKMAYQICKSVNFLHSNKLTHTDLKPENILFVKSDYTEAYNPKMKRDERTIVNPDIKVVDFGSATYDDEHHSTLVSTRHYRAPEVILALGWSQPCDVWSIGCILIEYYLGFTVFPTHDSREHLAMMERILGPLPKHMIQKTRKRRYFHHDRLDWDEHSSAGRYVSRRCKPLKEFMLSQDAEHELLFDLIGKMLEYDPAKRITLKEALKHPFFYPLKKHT
Chain of CLK4 (O35493 whole entry): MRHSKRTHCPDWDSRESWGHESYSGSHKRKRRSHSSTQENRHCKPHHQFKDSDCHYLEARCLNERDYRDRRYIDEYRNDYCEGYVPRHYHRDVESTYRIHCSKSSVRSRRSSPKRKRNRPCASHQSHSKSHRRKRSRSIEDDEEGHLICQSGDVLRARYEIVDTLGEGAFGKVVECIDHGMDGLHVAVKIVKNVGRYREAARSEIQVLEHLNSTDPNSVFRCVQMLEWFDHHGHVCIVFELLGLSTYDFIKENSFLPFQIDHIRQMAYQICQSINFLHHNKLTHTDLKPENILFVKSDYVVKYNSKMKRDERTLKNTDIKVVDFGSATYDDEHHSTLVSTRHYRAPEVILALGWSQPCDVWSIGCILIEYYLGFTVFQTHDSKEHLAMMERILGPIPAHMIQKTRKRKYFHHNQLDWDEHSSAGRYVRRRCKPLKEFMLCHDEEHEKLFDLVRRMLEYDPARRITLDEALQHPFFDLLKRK
Chain of CLK3 (O35492 whole entry): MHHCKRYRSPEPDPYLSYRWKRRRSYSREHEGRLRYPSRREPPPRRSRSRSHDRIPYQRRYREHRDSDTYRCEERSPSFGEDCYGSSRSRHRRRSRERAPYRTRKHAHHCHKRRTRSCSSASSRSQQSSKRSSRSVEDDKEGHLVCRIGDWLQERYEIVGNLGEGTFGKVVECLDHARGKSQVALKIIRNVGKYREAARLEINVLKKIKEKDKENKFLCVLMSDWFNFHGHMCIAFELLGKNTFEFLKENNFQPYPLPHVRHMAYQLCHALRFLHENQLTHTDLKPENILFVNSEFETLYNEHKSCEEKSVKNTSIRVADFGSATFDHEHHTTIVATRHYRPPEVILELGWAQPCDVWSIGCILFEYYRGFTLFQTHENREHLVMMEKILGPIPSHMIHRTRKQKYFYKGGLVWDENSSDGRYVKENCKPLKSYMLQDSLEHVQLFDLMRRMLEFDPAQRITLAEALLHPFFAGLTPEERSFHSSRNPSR
Chain of CLK2 (O35491 whole entry): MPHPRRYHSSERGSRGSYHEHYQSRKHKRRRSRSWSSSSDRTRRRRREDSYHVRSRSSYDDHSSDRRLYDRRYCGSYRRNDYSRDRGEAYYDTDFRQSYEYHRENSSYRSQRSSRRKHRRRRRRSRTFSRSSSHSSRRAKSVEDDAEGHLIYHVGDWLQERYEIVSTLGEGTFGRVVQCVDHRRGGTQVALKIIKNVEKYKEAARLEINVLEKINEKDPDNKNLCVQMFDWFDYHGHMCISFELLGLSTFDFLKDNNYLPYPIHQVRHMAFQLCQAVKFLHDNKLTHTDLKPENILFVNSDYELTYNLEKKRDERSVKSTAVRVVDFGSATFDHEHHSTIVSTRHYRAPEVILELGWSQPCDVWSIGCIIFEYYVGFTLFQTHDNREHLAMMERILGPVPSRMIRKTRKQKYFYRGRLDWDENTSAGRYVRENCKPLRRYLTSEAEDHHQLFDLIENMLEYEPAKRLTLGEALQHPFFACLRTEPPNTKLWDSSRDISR
Chain of DYRK1B (Q9Y463 whole entry): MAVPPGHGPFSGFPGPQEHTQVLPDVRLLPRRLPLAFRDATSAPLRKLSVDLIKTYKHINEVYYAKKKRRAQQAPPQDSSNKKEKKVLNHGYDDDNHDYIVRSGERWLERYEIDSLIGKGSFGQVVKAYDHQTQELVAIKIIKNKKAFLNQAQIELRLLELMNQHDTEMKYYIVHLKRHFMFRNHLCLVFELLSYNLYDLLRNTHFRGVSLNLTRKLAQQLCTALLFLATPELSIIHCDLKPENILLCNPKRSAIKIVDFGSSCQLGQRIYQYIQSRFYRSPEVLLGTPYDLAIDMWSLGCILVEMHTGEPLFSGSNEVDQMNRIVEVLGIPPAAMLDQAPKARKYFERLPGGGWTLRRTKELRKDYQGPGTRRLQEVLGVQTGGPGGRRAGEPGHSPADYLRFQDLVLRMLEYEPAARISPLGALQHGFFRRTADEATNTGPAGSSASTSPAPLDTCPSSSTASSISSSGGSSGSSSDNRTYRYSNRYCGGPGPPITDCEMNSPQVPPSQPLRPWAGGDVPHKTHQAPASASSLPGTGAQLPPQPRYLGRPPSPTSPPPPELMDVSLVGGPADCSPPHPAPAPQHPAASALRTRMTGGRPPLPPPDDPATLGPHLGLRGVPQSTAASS

| Compound | IC50 [2] | IC50 [3] | viability at 3 days, 1 µM [4] | viability at 3 days, 3 µM [4] | viability at 3 days, 10 µM [4] | LLE ([5]; Table S2) | LLE [5, 18] | inhibition at 10 µM [7] | Sexp., kin., pH 7.4 [10] | IC50 [11] | IC50 [12] | IC50 [13] | Sexp., therm., pH 7.4 [14] | further results |
| --- | --- | --- | --- | --- | --- | --- | --- | --- | --- | --- | --- | --- | --- | --- |
| N#Cc1c(C2CCCC2)[nH]c2c(I)cccc12 [Compound 6s, 2-Cyclopentyl-7-iodo-1H-indole-3-carbonitrile] | 120 nM | 70 nM | 99% | 100% | 82% | 2.78 | 2.78 | < 20% | 16.2 (15.2–17.3) µM | 100 nM | 1000 nM | 600 nM | <0.5 µM | IC50 ([1]; read-out: IC50 GSK3, 15 µM ATP): > 10000 nM; inhibition at 10 µM ([6]; 10 µM compound, read-out: Inhibition at 10 µM DYRK2 (class symbol)): < 20%; IC50 ([8]; Homo sapiens, HeLa cells expressing GFP-SF3B1-NT, 18 h, read-out: IC50 inhibition of endogenous DYRK1A activity in HeLa cells (pT434 SF3B1)): 520 nM; inhibition at 10 µM ([9]; 10 µM compound, read-out: Inhibition at 10 µM DYRK3 (class symbol)): < 20% |
| N#Cc1cn(Cc2ccccc2)c2c(Br)cccc12 [Compound 13b, 1-Benzyl-7-bromo-1H-indole-3-carbonitrile] | – | – | 94% | 94% | 66% | – | – | – | – | – | – | – | – | Residual Activity at 10 µM GSK3 ([1]; 10 µM compound, compared to controls): 114%; remaining activity at 10 µM ([2]; 10 µM compound, compared to controls, read-out: Residual Activity at 10 µM CLK1): 53%; remaining activity at 10 µM ([3]; 10 µM compound, compared to controls, read-out: Residual Activity at 10 µM DYRK 1A): 81%; Effect on the phosphorylation of SF3B1 on T434 ([8]; HeLa cells, negative control): did not affect |
| N#Cc1c(C2CC2)[nH]c2c(I)cccc12 [Compound 6r, 2-Cyclopropyl-7-iodo-1H-indole-3-carbonitrile] | 110 nM | 140 nM | – | – | – | 3.37 | 3.37 | < 20% | 38.1 (37.6–38.6) µM | 100 nM | 1000 nM | 500 nM | <0.5 µM | Inhibition at 10 µM GSK3 (class symbol) ([1]; 10 µM compound): - (-: less than 20% inhibition at 10 µM, IC50 was not determined); IC50 ([6]; 15 µM ATP): 8000 nM; IC50 ([9]; 15 µM ATP): > 10000 nM |
| COC(=N)c1nc2ccc3ncnc(Nc4ccc(OC)cc4F)c3c2s1 [EHT 5372] | – | – | – | – | – | – | – | – | – | – | – | – | – | IC50 [15]: 0.22 nM; IC50 [16]: […]; IC50 [17]: 1060 to 1170 nM |

Reference: paper PMC6017736, “Indole-3-Carbonitriles as DYRK1A Inhibitors by Fragment-Based Drug Design” (Molecules : A Journal of Synthetic Chemistry and Natural …, 2018)
